Converted amounts (≈) assume the structure as drawn. Read-outs that look alike come from different tables or passages of the source.

The text below walks through data of paper PMC5840523, “Assessment of a pretomanid analogue library for African trypanosomiasis: Hit-to-lead studies on 6-substituted 2-nitro-6,7-dihydro-5H-imidazo[2,1-b][1,3]thiazine 8-oxides” (Bioorganic & Medicinal Chemistry Letters, 2018).

On the set-up of series [1]: method as in PMID 25141257. To be noted: cited from earlier work.
The test system of the next series is T. b. brucei. Further details: method as in PMID 20439607. To be noted: read-out: IC50 versus T. b. brucei; cited from earlier work.
Another series has as its system L929 mouse fibroblasts. The experiment in a line: Cytotoxicity toward L929 mouse fibroblasts (Scynexis). In kind it is cell-based.
A short description of series [2]: Kinetic aqueous solubility in pH 7.4 PBS. The series is classed as physicochemical. From the text:
Table 1 Inhibitory potency, metabolic stability, aqueous solubility, and MDCK-MDR1 cell permeability for 15 screening hits against T. b. brucei. | column: Solubility ^c / (µg/mL)

Another series in a line: Mouse liver S9 stability. In kind it is in vitro ADME. To be noted: CD-1, mouse, mouse liver S9 subcellular fraction, half-life in mouse liver S9 fraction; read-out: Mouse S9 t1/2.
The nature of the next series: in vitro. To be noted: dog, MDCK-MDR1, Permeability Papp.
The nature of series [3]: Mouse pharmacokinetics (plasma, whole blood, brain). The series is classed as in vivo, male CD-1 mice. To be noted: for bioavailability: from dose normalised AUClast values, read-out: F (oral bioavailability); for Vd: read-out: Vdss. As to the method:
In order to determine the suitability of the more permeable hits for in vivo efficacy studies, we first measured their aqueous solubilities, and their tendencies to metabolise, following a 1 h incubation with CD-1 mouse liver S9 subcellular fractions.[14] […] This led us to probe their in vivo pharmacokinetic (PK) profiles in mice, examining concentration levels in plasma, whole blood and brain tissue following both intravenous and oral administration (Table 2; for further experimental details, see the Supporting Information). […]
Mouse Pharmacokinetics. The in-life portion of PK testing was carried out by ViviSource Laboratories, Inc., Mass achusetts, USA, and PK samples were anal ysed by Sc ynexis, Inc.
Test compounds (9, 12, 17, and 19) w er e each administered as single doses to groups of 10 male CD-1 mice by bolus intravenous injection or oral gavage. Intravenous dosing (at a nominal dose of 2 mg/kg) emplo yed a solution vehicle comprising either 20% EtOH, 20% propylene gl ycol, and 30% PEG -400 in normal saline (for powders 9, 17, and 19) or 0.5% (hydrox yprop yl)meth ylcellulose, 0.4% Tween 80, 0.5% benz yl alcohol, and 20% DMSO i n deionised water (for oil 12). […]
in 0.5% methylcellulose, 0.08% Tween 80 in water ( ex cept fo r oil 12, where the formulation additionally contained 20% DMSO). […]

In another series the test system is T. b. brucei 427. The experiment in a line: T. b. brucei 427 growth inhibition (Scynexis). The series is classed as cell-based, Trypanosoma brucei brucei.
The conditions of series [4]: late stage HAT patients; cited from earlier work.
Setting [5] is: male, CD-1, mouse, brain, intravenous, corrected doses 0.5, 1.1, 2.9, 2.0 mg/kg for 9, 12, 17, 19.
The mark [6] stands for this setting: male, CD-1, mouse, brain, oral, corrected doses 62, 50, 78, 49 mg/kg for 9, 12, 17, 19.
Setting [7] is: male, CD-1, mouse, plasma, intravenous, corrected doses 0.5, 1.1, 2.9, 2.0 mg/kg for 9, 12, 17, 19.
Where [8] appears, read: male, CD-1, mouse, plasma, oral, corrected doses 62, 50, 78, 49 mg/kg for 9, 12, 17, 19.
Where [9] appears, read: male, CD-1, mouse, whole blood, intravenous, corrected doses 0.5, 1.1, 2.9, 2.0 mg/kg for 9, 12, 17, 19.
[10] abbreviates: male, CD-1, mouse, whole blood, oral, corrected doses 62, 50, 78, 49 mg/kg for 9, 12, 17, 19.

As to `O=[N+]([O-])c1cn2c(n1)OC[C@@H](OCc1ccc(OC(F)(F)F)cc1)C2` [Compound 6, pretomanid], the “oral half-life in mouse lung tissue” value in series [1] was 4.8 h. The half-inhibitory concentration (IC50) (commonly the concentration at which inhibition is half-maximal) in the series on T. b. brucei is 38 µM.

Consider `O=[N+]([O-])c1cn2c(n1)OC[C@@H](NCc1ccc(OC(F)(F)F)cc1)C2` [Compound 17], for which the IC50 was over 10 µg/mL in the series on L929 mouse fibroblasts and 0.78 ± 0.01 µg/mL (≈ 2.18 µM) with T. b. brucei 427 (Trypanosoma brucei, growth inhibition of T. b. brucei 427, mean ± SD). The “oral half-life in mouse lung tissue” value in [1] is 1.3 h. Also, the solubility (usually how much of the substance goes into solution per volume) in [2] is over 72 µg/mL. In addition, the half-life in “Mouse liver S9 stability” is over 5.83 h; in series [3] (male, CD-1, mouse, po, 78 mg/kg, over plasma, whole blood, brain, read-out: oral half-life) it was 1.2 to 1.5 h; in series [3] (male, CD-1, mouse, brain, intravenous, corrected doses 0.5, 1.1, 2.9, 2.0 mg/kg for 9, 12, 17, 19, read-out: t1/2 (converted)), 0.26 h; in [3] (male, CD-1, mouse, brain, oral, corrected doses 62, 50, 78, 49 mg/kg for 9, 12, 17, 19, read-out: t1/2 (converted)), 1.3 h; in [3] (male, CD-1, mouse, plasma, intravenous, corrected doses 0.5, 1.1, 2.9, 2.0 mg/kg for 9, 12, 17, 19, read-out: t1/2 (converted)), 0.48 h; in [3] (male, CD-1, mouse, plasma, oral, corrected doses 62, 50, 78, 49 mg/kg for 9, 12, 17, 19, read-out: t1/2 (converted)) it was 1.2 h. In addition, the half-life is 9.3 h in series [3] (male, CD-1, mouse, whole blood, intravenous, corrected doses 0.5, 1.1, 2.9, 2.0 mg/kg for 9, 12, 17, 19, read-out: t1/2 (converted)) and 1.5 h in series [3] (male, CD-1, mouse, whole blood, oral, corrected doses 62, 50, 78, 49 mg/kg for 9, 12, 17, 19, read-out: t1/2 (converted)). In addition, the apparent permeability (Papp) (usually the rate of passage across a membrane or cell layer, normalised by area and donor concentration) at 1 h, 3 µM in the series “in vitro” was 80.4 ×10⁻⁶ cm/s. Besides, in series [3] (male, CD-1, mouse, in vivo, po), the “time beyond which exposure above the MIC is inadequate” value is given as about 2 h. Also, the bioavailability (in general, dose-corrected exposure relative to a reference, in per cent) in series [3] (male, CD-1, mouse, po, brain) came out at 100%; in series [3] (male, CD-1, mouse, po, plasma), 100%; in [3] (male, CD-1, mouse, po, whole blood), 100%. The area under the curve AUC(0-t) – broadly, exposure summed from dosing to a finite time, without extrapolation to infinity – in series [3] (setting [5]) was determined as 962 ng·h/mL; in series [3] (setting [6]), 50900 ng·h/mL; in series [3] (setting [7]), 418 ng·h/mL; in series [3] (setting [8]) it was 20500 ng·h/mL; in [3] (setting [9]), 1100 ng·h/mL; in [3] (setting [10]), 42200 ng·h/mL. Moreover, the figures for the clearance in [3] (setting [5]), in [3] (setting [7]) and in series [3] (setting [9]) were 48.3 mL/min/kg, 113 mL/min/kg and 40 mL/min/kg, respectively. Besides, the Vd stood at 2.3 L/kg in series [3] (setting [5]), 4.7 L/kg in [3] (setting [7]) and 8.1 L/kg in series [3] (setting [9]). Further, the Cmax (in general, the highest concentration seen after dosing) in series [3] (setting [6]) came out at 35000 ng/mL; in [3] (setting [8]), 12000 ng/mL; in [3] (setting [10]), 26000 ng/mL. Moreover, the time to peak (Tmax) – broadly, the time at which the peak concentration occurs – turned out to be 0.5 h in series [3] (setting [6]), 1 h in series [3] (setting [8]) and 0.5 h in [3] (setting [10]). The “concentration levels in brain tissue relative to plasma (fold higher)” value in series [3] (mouse, in vivo) is on record as 2- to 3 fold. The “Selectivity Index” value in the series with T. b. brucei 427 (L929 vs T. b. brucei) is reported as over 13.

Consider `Nc1nc(N)nc(Nc2ccc([As]3SCC(CO)S3)cc2)n1` (stereo not shown) [melarsoprol], for which the “death of patients caused by treatment” value in [4] is on record as about 5%.
